Assays:
[1] = Intrinsic dissolution rate in pH 2.5 HCl/NaCl aqueous solution; type: physicochemical; details: for Cumulative dissolution / IDR (intrinsic dissolution rate): pH 2.5 HCl/NaCl, 37° C.; for Cumulative dissolution: 0.5 cm^2 pellet; for IDR relative to that of Form I in WO2017002095A1: pH 2.5 HCl/NaCl solution; for IDR (intrinsic dissolution rate): slope over 0-45 minutes
Description: (§1) Approximately 200 mg of Form A and Form I in WO2017002095A1 were added into the die, compressed at 10 kN and held for 1 minute to obtain a pellet having a surface area of 0.5 cm^2. The whole tool with the pellet was transferred to a dissolution apparatus to test the intrinsic dissolution rate. The slope (mg/min) was calculated according to the data within 0-45 minutes. Intrinsic dissolution rate (IDR, mg/min/cm^2) was further calculated according to the slope.
as §1, with “Form D” for “Form A”
as §1, with “Form F” for “Form A”, “intrinsic dissolution.” for “intrinsic dissolution rate.”
as §1, with “Form G” for “Form A”, “intrinsic dissolution.” for “intrinsic dissolution rate.”
as §1, with “Form CS15” for “Form A”, “intrinsic dissolution.” for “intrinsic dissolution rate.”

[2] = Compressibility (tensile strength of compressed tablet); type: physicochemical; details: about 80 mg, φ6 mm round tooling, compressed at 10 kN
Description: (§2) Approximately 80 mg of Form A and Form I in WO2017002095A1 were weighed into the dies of a φ6 mm round tooling, compressed at 10 kN manually, then stored in a desiccator for 24 hours until complete elastic recovery. Radial crushing force (hardness, H) was tested with an intelligent tablet hardness tester. Diameter (D) and thickness (L) were tested with a caliper. Tensile strength of the powder that with different hardness was calculated with the following formula: T=2H/πDL. Under a certain force, the greater the tensile strength, the better the compressibility.
as §2, with “Form D” for “Form A”, “manually, and” for “manually,”, “powder” for “powder that”
as §2, with “of Form F and Form” for “of Form A and Form”, “kN manually, and then stored” for “kN manually, then stored”, “tested with caliper. Tensile” for “tested with a caliper. Tensile”, “the powder with different” for “the powder that with different”
Approximately 80 mg of Form G and Form I of WO2017002095A1 were weighed into the dies of a φ6 mm round tooling, compressed at 10 kN manually, and then stored in a desiccator for 24 hours until complete elastic recovery. Radial crushing force (hardness, H)) was tested with an intelligent tablet hardness tester. Diameter (D) and thickness (L) were tested with caliper. Tensile strength of the powder with different hardness was calculated with the following formula: T=2H/πDL. Under a certain force, the greater the tensile strength, the better the compressibility.
as §2, with “of Form CS15 and Form” for “of Form A and Form”, “kN manually, and then stored” for “kN manually, then stored”, “tested with caliper. Tensile” for “tested with a caliper. Tensile”, “the powder with different” for “the powder that with different”

CC#CC(=O)N1CCC[C@H]1c1nc(-c2ccc(C(=O)Nc3ccccn3)cc2)c2c(N)nccn12 [Form A, (S)-4-(8-amino-3-(1-(but-2-ynoyl)pyrrolidin-2-yl)imidazo[1,5-a]pyrazin-1-yl)-N-(pyridin-2-yl)benzamide]
Cumulative dissolution ([1]; 0 min): 0.00 mg | Cumulative dissolution ([1]; 5 min): 1.13 mg | Cumulative dissolution ([1]; 10 min): 2.42 mg | Cumulative dissolution ([1]; 15 min): 3.80 mg | Cumulative dissolution ([1]; 20 min): 4.73 mg | Cumulative dissolution ([1]; 25 min): 5.79 mg | Cumulative dissolution ([1]; 30 min): 6.72 mg | Cumulative dissolution ([1]; 35 min): 7.83 mg | Cumulative dissolution ([1]; 45 min): 9.93 mg | IDR relative to that of Form I in WO2017002095A1 [1]: 1.2 times | IDR (intrinsic dissolution rate) [1]: 0.4520 mg/min/cm^2 | Tensile strength [2]: 1.35 MPa

CC#CC(=O)N1CCC[C@H]1c1nc(-c2ccc(C(=O)Nc3ccccn3)cc2)c2c(N)nccn12 [Form G, (S)-4-(8-amino-3-(1-(but-2-ynoyl)pyrrolidin-2-yl)imidazo[1,5-a]pyrazin-1-yl)-N-(pyridin-2-yl)benzamide]
Cumulative dissolution ([1]; 0 min): 0.00 mg | Cumulative dissolution ([1]; 5 min): 1.28 mg | Cumulative dissolution ([1]; 10 min): 2.36 mg | Cumulative dissolution ([1]; 15 min): 3.68 mg | Cumulative dissolution ([1]; 20 min): 4.76 mg | Cumulative dissolution ([1]; 25 min): 5.51 mg | Cumulative dissolution ([1]; 30 min): 6.71 mg | Cumulative dissolution ([1]; 35 min): 7.65 mg | Cumulative dissolution ([1]; 45 min): 9.50 mg | IDR relative to that of Form I in WO2017002095A1 [1]: 1.2 times | IDR (intrinsic dissolution rate) [1]: 0.4396 mg/min/cm^2 | Tensile strength [2]: 1.62 MPa

CC#CC(=O)N1CCC[C@H]1c1nc(-c2ccc(C(=O)Nc3ccccn3)cc2)c2c(N)nccn12 [Form F, (S)-4-(8-amino-3-(1-(but-2-ynoyl)pyrrolidin-2-yl)imidazo[1,5-a]pyrazin-1-yl)-N-(pyridin-2-yl)benzamide]
Cumulative dissolution ([1]; 0 min): 0.00 mg | Cumulative dissolution ([1]; 5 min): 1.31 mg | Cumulative dissolution ([1]; 10 min): 2.47 mg | Cumulative dissolution ([1]; 15 min): 3.99 mg | Cumulative dissolution ([1]; 20 min): 5.30 mg | Cumulative dissolution ([1]; 25 min): 6.50 mg | Cumulative dissolution ([1]; 30 min): 7.26 mg | Cumulative dissolution ([1]; 35 min): 8.74 mg | Cumulative dissolution ([1]; 45 min): 10.44 mg | IDR relative to that of Form I in WO2017002095A1 [1]: 1.3 times | IDR (intrinsic dissolution rate) [1]: 0.4898 mg/min/cm^2 | Tensile strength [2]: 1.02 MPa

CC#CC(=O)N1CCC[C@H]1c1nc(-c2ccc(C(=O)Nc3ccccn3)cc2)c2c(N)nccn12 [Form CS15, (S)-4-(8-amino-3-(1-(but-2-ynoyl)pyrrolidin-2-yl)imidazo[1,5-a]pyrazin-1-yl)-N-(pyridin-2-yl)benzamide]
Cumulative dissolution ([1]; 0 min): 0.00 mg | Cumulative dissolution ([1]; 5 min): 1.06 mg | Cumulative dissolution ([1]; 10 min): 2.34 mg | Cumulative dissolution ([1]; 15 min): 4.20 mg | Cumulative dissolution ([1]; 20 min): 5.60 mg | Cumulative dissolution ([1]; 25 min): 7.89 mg | Cumulative dissolution ([1]; 30 min): 8.86 mg | Cumulative dissolution ([1]; 35 min): 10.60 mg | Cumulative dissolution ([1]; 45 min): 12.41 mg | IDR relative to that of Form I in WO2017002095A1 [1]: 1.6 times | IDR (intrinsic dissolution rate) [1]: 0.5778 mg/min/cm^2 | Tensile strength [2]: 1.18 MPa
